Experimental data as given in patent US20060235013A1, “Tricyclic azole derivatives” (priority 2005, published 2006).

How the values were obtained:
HCT 116 cells = experiment: Viability assay in HCT 116 cells (CellTiter-Glo Luminescent Cell Viability Assay); assay type: cell-based; conditions: HCT 116 human colon carcinoma cells, 5 days (120 h) incubation, ATP luminescence
Protocol: Viability Assay in HCT 116 Cells
A viability assay was performed using the CellTiter-Glo® Luminescent Cell Viability Assay (see Promega Corporation's Technical Bulletin No. 288, pp. 1-11 [revised February 2004] which is hereby incorporated by reference in its entirety). This assay is a homogeneous method of determining the number of viable cells in culture based on quantitation of the ATP present, an indicator of metabolically active cells. The assay is designed for use with multiwell formats, making it ideal for automated high-throughput screening (HTS), cell proliferation and cytotoxicity assays. The homogenous assay procedure involves adding a single reagent (containing luciferase, luciferan substrate, and buffer) directly to cells cultured in serum-supplemented medium. Cell washing, removal of medium and multiple pipetting steps are not required. The system detects as few as 15 cells/well in a 384-well format in 10 minutes after adding reagent and mixing.
The homogeneous “add-mix-measure” format results in cell lysis and generation of a luminescent signal proportional to the amount of ATP present. The amount of ATP is directly proportional to the number of cells present in culture. The above-referenced assay generates a “glow-type” luminescent signal, produced by the luciferase reaction, which has a half-life generally greater than five hours, depending on cell type and medium used. The extended half-life eliminates the need to use reagent injectors and provides flexibility for continuous or batch mode processing of multiple plates. The unique homogeneous format avoids errors that may be introduced by other ATP measurement methods that require multiple steps.
HCT 116 cells (human colon carcinoma, ATCC-No. CCl-247) were cultivated in RPMI 1640 medium with GlutaMAX™ I (cell culture media that contains L-Alanyl-L-Glutamine [a stabilized a form/source of L-Glutamine] from Invitrogen, Cat-No. 61870-010), 2.5% Fetal Calf Serum (FCS, Sigma Cat-No. F4135 (FBS)); 100 Units/ml penicillin/100 μg/ml streptomycin (=Pen/Strep from Invitrogen Cat. No. 15140). For the assay the cells were seeded in 384 well plates, 1000 cells per well, in the same medium. The next day the test compounds were added in various concentrations ranging from 30 μM to 0.0015 μM (10 concentrations, 1:3 diluted). After 5 days the viability assay was done according to the instructions of the manufacturer. In brief: the cell-plate was equilibrated to room temperature for approximately 30 minutes and then reagent (containing luciferase, luciferan substrate, and buffer) was added. The contents were carefully mixed for 15 minutes to induce cell lysis. After 45 minutes the luminescent signal was measured in Victor 2, (scanning multiwell spectrophotometer, Wallac).
Medium: RPMI 1640 with cell culture media containing L-Alanyl-L-Glutamine [GlutaMAX™ I (Invitrogen, Cat-No. 61870)], 5% FCS (Sigma Cat.-No. F4135), Pen/Strep (Invitrogen, Cat No. 15140).
HCT116 (ATCC-No. CCl-247): 1000 cells in 60 μl per well of 384 well plate (Greiner 781098, μClear-plate white)
After seeding incubate plates 24 h at 37° C., 5% CO2
2nd. Day: Induction (Treatment with Compounds, 10 Concentrations):
In order to achieve a final concentration of 30 μM as highest concentration 3.5 μl of 10 mM compound stock solution were added directly to 163 μl media. Then step (d) of the dilution procedure described below, was followed.
In order to achieve the second highest to the lowest concentrations, a serial dilution with dilution steps of 1:3 was followed according to the procedure (a-d) as described here below:
(a) for the second highest concentration add 10 μl of 10 mM stock solution of compound to 20 μl dimethylsulfoxide (DMSO)
(b) dilute 8×1:3 (always 10 μl to 20 μl DMSO) in this DMSO dilution row (results in 9 wells with concentrations from 3333.3 μM to 0.51 μM)
(c) dilute each concentration 1: 47.6 (3.5 μl compound dilution to 163 μl media)
(d) add 10 μl of every concentration to 60 μl media in the cell plate […]

Aurora A kinase = target: T1, Aurora A kinase (Homo sapiens, UniProt O14965); experiment: IC50 determination for inhibitors of Aurora A (ELISA-type kinase assay, GST-Histone H3 substrate); assay type: biochemical; conditions: mutant Aurora A kinase, 30 μM ATP, 40 minutes, read-out: IC50 Aurora A kinase inhibition
T1 sequence (O14965 1-403): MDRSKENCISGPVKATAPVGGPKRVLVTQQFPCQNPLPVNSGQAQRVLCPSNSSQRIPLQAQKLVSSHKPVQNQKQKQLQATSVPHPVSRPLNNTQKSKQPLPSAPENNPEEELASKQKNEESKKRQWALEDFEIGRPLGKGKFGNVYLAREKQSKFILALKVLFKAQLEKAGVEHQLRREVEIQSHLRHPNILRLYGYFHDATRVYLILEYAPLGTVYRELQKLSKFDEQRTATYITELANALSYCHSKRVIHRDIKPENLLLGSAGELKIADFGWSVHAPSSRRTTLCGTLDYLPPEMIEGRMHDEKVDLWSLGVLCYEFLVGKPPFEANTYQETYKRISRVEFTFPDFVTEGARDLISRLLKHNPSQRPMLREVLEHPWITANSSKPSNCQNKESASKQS
Protocol: IC50 Determination for Inhibitors of Aurora A
Aurora A is a serine threonine kinase involved in spindle assembly and chromosome segregation.
The assay is a typically ELISA-type assay where substrate (GST-Histone H3) is coupled to the assay-plate and is phosphorylated by the kinase. Phosphorylation is detected by a mouse anti-Phosphopeptid mAb and an HRP-labeled anti-mouse pAb. The assay is validated for IC50-determination.
Kinase activities were measured by Enzyme-Linked Immunosorbent Assay (ELISA): Maxisorp 384-well plates (Nunc) were coated with recombinant fusion protein comprising residues 1-15 of HistoneH3 fused to the N-terminus of Glutathione-S-Transferase. Plates were then blocked with a solution of 1 mg/mL I-block (a highly purified form of casein, Tropix cat. no. T2015) in phosphate-buffered saline. Kinase reactions were carried out in the wells of the ELISA plate by combining an appropriate amount of mutant Aurora A kinase with test compound and 30 μM ATP. The reaction buffer was 10× Kinase Buffer (Cell Signaling cat. no. 9802) supplemented with 1 μg/mL I-block. Reactions were stopped after 40 minutes by addition of 25 mM EDTA. After washing, substrate phosphorylation was detected by addition of anti-phospho-Histone H3 (Ser 10) 6G3 mAb (Cell Signaling cat. no. 9706) and sheep anti-mouse pAb-HRP (Amersham cat. no. NA931V), followed by colorimetric development with TMB (3,3′,5,5′-tetramethylbenzidine from Kirkegaard & Perry Laboratories). After readout of the adsorbance, IC50 values were calculated using a non-linear curve fit (XLfit software (ID Business Solution Ltd., Guilford, Surrey, UK)).

| SMILES | IC50 (HCT 116 cells) | IC50 (Aurora A kinase) |
| --- | --- | --- |
| CN1C(=O)C(C)(C)c2cc3nc(-c4n[nH]c5c4CCC5)[nH]c3cc21 [Example 2, 5,7,7-Trimethyl-2-(1,4,5,6-tetrahydro-cyclopentapyrazol-3-yl)-5,7-dihydro-3H-imidazo[4,5-f]indol-6-one] | 0.43 µM |  |
| CC1(C)C(=O)N(CCCN2CCOCC2)c2cc3[nH]c(-c4n[nH]c5c4CCC5)nc3cc21 [Example 6, 7,7-Dimethyl-5-(3-morpholin-4-yl-propyl)-2-(1,4,5,6-tetrahydro-cyclopentapyrazol-3-yl)-5,7-dihydro-3H-imidazo[4,5-f]indol-6-one] | 0.682 µM |  |
| CCCN1C(=O)C(C)(C)c2cc3nc(-c4n[nH]c5c4CCC5)[nH]c3cc21 [Example 4, 7,7-Dimethyl-5-propyl-2-(1,4,5,6-tetrahydro-cyclopentapyrazol-3-yl)-5,7-dihydro-3H-imidazo[4,5-f]indol-6-one] | 0.224 µM |  |
| CCN1C(=O)C(C)(C)c2cc3nc(-c4n[nH]c5c4CCC5)[nH]c3cc21 [Example 3, 5-Ethyl-7,7-dimethyl-2-(1,4,5,6-tetrahydro-cyclopentapyrazol-3-yl)-5,7-dihydro-3H-imidazo[4,5-f]indol-6-one] | 0.1 to 2 µM |  |
| CC1(C)C(=O)Nc2cc3[nH]c(-c4n[nH]c5c4CCCC5)nc3cc21 [Example 7, 7,7-Dimethyl-2-(4,5,6,7-tetrahydro-1H-indazol-3-yl)-5,7-dihydro-3H-imidazo[4,5-f]indol-6-one] | 0.1 to 2 µM |  |
| CC(C)N1C(=O)C(C)(C)c2cc3nc(-c4n[nH]c5c4CCC5)[nH]c3cc21 [Example 5, 5-Isopropyl-7,7-dimethyl-2-(1,4,5,6-tetrahydro-cyclopentapyrazol-3-yl)-5,7-dihydro-3H-imidazo[4,5-f]indol-6-one] |  | 0.017 µM |
| CC1(C)C(=O)Nc2cc3[nH]c(-c4n[nH]c5c4CCC5)nc3cc21 [Example 1, 7,7-Dimethyl-2-(1,4,5,6-tetrahydro-cyclopentapyrazol-3-yl)-5,7-dihydro-3H-imidazo[4,5-f]indol-6-one] | 0.1 to 2 µM |  |

Further lines, results first:

| IC50 (HCT 116 cells) | IC50 (Aurora A kinase) | SMILES |
| --- | --- | --- |
| 0.1 to 2 µM |  | CCN1C(=O)C(C)(C)c2cc3nc(-c4n[nH]c5c4CSCC5)[nH]c3cc21 [Example 26, 5-Ethyl-7,7-dimethyl-2-(1,4,6,7-tetrahydro-thiopyrano[4,3-c]pyrazol-3-yl)-5,7-dihydro-3H-imidazo[4,5-f]indol-6-one] |
| 0.741 µM |  | CC(C)N1C(=O)C(C)(C)c2cc3nc(-c4n[nH]c5c4CN(C(=O)Cc4cccs4)C5)[nH]c3cc21 [Example 24, 5-Isopropyl-7,7-dimethyl-2-[5-(2-thiophen-2-yl-acetyl)-1,4,5,6-tetrahydro-pyrrolo[3,4-c]pyrazol-3-yl]-5,7-dihydro-3H-imidazo[4,5-f]indol-6-one] |
| 0.1 to 2 µM |  | CCN1C(=O)C(C)(C)c2cc3nc(-c4n[nH]c5c4CN(Cc4ccccc4)CC5)[nH]c3cc21 [Example 13, 2-(5-Benzyl-4,5,6,7-tetrahydro-1H-pyrazolo[4,3-c]pyridin-3-yl)-5-ethyl-7,7-dimethyl-5,7-dihydro-3H-imidazo[4,5-f]indol-6-one] |
| 0.1 to 2 µM |  | CCN1C(=O)C(C)(C)c2cc3nc(-c4n[nH]c5c4CN(C(=O)Cc4cccs4)C5)[nH]c3cc21 [Example 23, 5-Ethyl-7,7-dimethyl-2-[5-(2-thiophen-2-yl-acetyl)-1,4,5,6-tetrahydro-pyrrolo[3,4-c]pyrazol-3-yl]-5,7-dihydro-3H-imidazo[4,5-f]indol-6-one] |
| 0.338 µM |  | CC(C)N1C(=O)C(C)(C)c2cc3nc(-c4n[nH]c5c4CSC5)[nH]c3cc21 [Example 28, 2-(4,6-Dihydro-1H-thieno[3,4-c]pyrazol-3-yl)-5-isopropyl-7,7-dimethyl-5,7-dihydro-3H-imidazo[4,5-f]indol-6-one] |
| 0.1 to 2 µM |  | CCN1C(=O)C(C)(C)c2cc3nc(-c4n[nH]c5c4CCCC5)[nH]c3cc21 [Example 8, 5-Ethyl-7,7-dimethyl-2-(4,5,6,7-tetrahydro-1H-indazol-3-yl)-5,7-dihydro-3H-imidazo[4,5-f]indol-6-one] |
| 0.1 to 2 µM |  | CCc1cccc(CC)c1NC(=O)N1Cc2[nH]nc(-c3nc4cc5c(cc4[nH]3)N(C(C)C)C(=O)C5(C)C)c2C1 [Example 21, 3-(5-Isopropyl-7,7-dimethyl-6-oxo-3,5,6,7-tetrahydro-imidazo[4,5-f]indol-2-yl)-4,6-dihydro-1H-pyrrolo[3,4-c]pyrazole-5-carboxylic acid (2,6-diethyl-phenyl)-amide] |
| 1.5 µM |  | CCN1C(=O)C(C)(C)c2cc3nc(-c4n[nH]c5c4CN(C(=O)Cc4ccc(F)cc4)CC5)[nH]c3cc21 [Example 15, 5-Ethyl-2-{5-[2-(4-fluoro-phenyl)-acetyl]-4,5,6,7-tetrahydro-1H-pyrazolo[4,3-c]pyridin-3-yl}-7,7-dimethyl-5,7-dihydro-3H-imidazo[4,5-f]indol-6-one] |
| 0.1 to 2 µM |  | CCN1C(=O)C(C)(C)c2cc3nc(-c4n[nH]c5c4CN(C(=O)N4CCOCC4)CC5)[nH]c3cc21 [Example 18, 5-Ethyl-7,7-dimethyl-2-[5-(morpholine-4-carbonyl)-4,5,6,7-tetrahydro-1H-pyrazolo[4,3-c]pyridin-3-yl]-5,7-dihydro-3H-imidazo[4,5-f]indol-6-one] |
| 0.1 to 2 µM |  | CCN1C(=O)C(C)(C)c2cc3nc(-c4n[nH]c5c4CN(S(=O)(=O)c4ccc(F)cc4)C5)[nH]c3cc21 [Example 25, 5-Ethyl-2-[5-(4-fluoro-benzenesulfonyl)-1,4,5,6-tetrahydro-pyrrolo[3,4-c]pyrazol-3-yl]-7,7-dimethyl-5,7-dihydro-3H-imidazo[4,5-f]indol-6-one] |
